Experiments:
[1] = Solid state stability under desiccant conditions (two weeks); type: physicochemical
Description: Stability of Compound 1 Hydrochloride Forms A and C was evaluated under desiccant conditions. Compound 1 Hydrochloride Form A (Type 1 Lot) and a mixture comprising Compound 1 Hydrochloride Form A (Type 2 Lot) and Form C were stored under desiccant conditions for a two week period. Solids were then re-analyzed using methods described herein.

[2] = Biorelevant solubility (water, saline, FaSSIF, FeSSIF, FaSSGF, 37° C.); type: physicochemical
Description: Due to pH drift in a previous study (see Example 12.1), in order to obtain a more accurate pH solubility evaluation, a study was designed using water, saline, FaSSIF (fasted state simulated intestinal fluid, pH 6.5), […] (fed state simulated intestinal fluid, pH 5.0), and FaSSGF (fasted state simulated gastric fluid, pH 1.6), which would ensure ending pH and buffer pH remained the same. […] The study design was successful, and all initial pH values were maintained. […] The pH was measured constantly during the addition up to the point of movement in the buffer, at which point additions were halted and the solutions or suspensions matured over 48 hours at 37° C. Samples were taken for solubility evaluation at the specified time-points and clarified through 0.45 micron filters and pH measured on the settled suspensions. Solubility was determined vs a 0.5 mg/mL reference. 35 mg portions were added to FaSSGF and FeSSIF maintaining solutions.

SMILES: COC(=O)c1ccc2c(c1)NC(=O)/C2=C(\Nc1ccc(N(C)C(=O)CN2CCN(C)CC2)cc1)c1ccccc1.Cl [Compound 1 Hydrochloride Form A (Type 1 Lot)]
- Appearance After Storage [1]: Yellow powder
- TGA weight reduction [1]: Weight reduction of 5.6%
- XRPD [1]: Form A
- solubility in saline [2]: > 50 mg/mL
- solubility in water [2]: > 50 mg/mL
- Final pH ([2]; 0.9% NaCl): 3.03
- Solubility (mg/mL) T = 1 h ([2]; 0.9% NaCl): >50 mg/mL
- Solubility (mg/mL) T = 3 h ([2]; 0.9% NaCl): >50 mg/mL
- Solubility (mg/mL) T = 6 h ([2]; 0.9% NaCl): >50 mg/mL
- Solubility (mg/mL) T = 24 h ([2]; 0.9% NaCl): >50 mg/mL
- Final pH ([2]; FaSSGF (starting pH 1.6)): 1.65
- Solubility (mg/mL) T = 1 h ([2]; FaSSGF (starting pH 1.6)): >35 mg/mL
- Solubility (mg/mL) T = 3 h ([2]; FaSSGF (starting pH 1.6)): >35 mg/mL
- Solubility (mg/mL) T = 6 h ([2]; FaSSGF (starting pH 1.6)): >35 mg/mL
- Solubility (mg/mL) T = 24 h ([2]; FaSSGF (starting pH 1.6)): >35 mg/mL
- Final pH ([2]; FaSSIF (starting pH 6.5)): 6.13
- Solubility (mg/mL) T = 1 h ([2]; FaSSIF (starting pH 6.5)): 2.41 mg/mL
- Solubility (mg/mL) T = 3 h ([2]; FaSSIF (starting pH 6.5)): 3.38 mg/mL
- Solubility (mg/mL) T = 6 h ([2]; FaSSIF (starting pH 6.5)): 3.74 mg/mL
- Solubility (mg/mL) T = 24 h ([2]; FaSSIF (starting pH 6.5)): 5.12 mg/mL
- Final pH ([2]; FeSSIF (starting pH 5.0)): 4.98
- Solubility (mg/mL) T = 1 h ([2]; FeSSIF (starting pH 5.0)): >35 mg/mL
- Solubility (mg/mL) T = 3 h ([2]; FeSSIF (starting pH 5.0)): >35 mg/mL
- Solubility (mg/mL) T = 6 h ([2]; FeSSIF (starting pH 5.0)): >35 mg/mL
- Solubility (mg/mL) T = 24 h ([2]; FeSSIF (starting pH 5.0)): >35 mg/mL
- Final pH ([2]; Water): 3.04
- Solubility (mg/mL) T = 1 h ([2]; Water): >50 mg/mL
- Solubility (mg/mL) T = 3 h ([2]; Water): >50 mg/mL
- Solubility (mg/mL) T = 6 h ([2]; Water): >50 mg/mL
- Solubility (mg/mL) T = 24 h ([2]; Water): >50 mg/mL
- solubility in FeSSIF ([2]; pH 5.0): > 50 mg/mL

Reference: patent US20230312561A1, “SOLID FORMS OF (Z)-METHYL 3-(((4-(N-METHYL-2-(4-METHYLPIPERAZIN-1-YL)ACETAMIDO)PHENYL)AMINO)(PHENYL)METHYLENE)-2-OXO-2,3-DIHYDRO-1H-PYRROLO[2,3-B]PYRIDINE-6-CARBOXYLATE AND SALTS THEREOF” (Angion Biomedica Corp., priority 2020, published 2023)
